# Measurements as given in ChEMBL document CHEMBL1155439, “Transient receptor potential ankyrin 1 (TRPA1) channel as emerging target for novel analgesics and anti-inflammatory agents” (J Med Chem, 2010).
# Tests used:
# [1] = biological target: T1, Transient receptor potential cation channel subfamily A member 1 (Mus musculus, UniProt Q8BLA8); assay: Antagonist activity at mouse TRPA1 channel expressed in CHO cells assessed as inhibition of cinnamaldehyde-induced intracellular calcium influx
# [2] = biological target: T2, Transient receptor potential cation channel subfamily A member 1 (Homo sapiens, UniProt O75762); assay: Antagonist activity at human TRPA1 channel expressed in CHO cells assessed as inhibition of cinnamaldehyde-induced intracellular calcium influx; format: functional, cell-based
# T2 sequence (O75762 whole entry): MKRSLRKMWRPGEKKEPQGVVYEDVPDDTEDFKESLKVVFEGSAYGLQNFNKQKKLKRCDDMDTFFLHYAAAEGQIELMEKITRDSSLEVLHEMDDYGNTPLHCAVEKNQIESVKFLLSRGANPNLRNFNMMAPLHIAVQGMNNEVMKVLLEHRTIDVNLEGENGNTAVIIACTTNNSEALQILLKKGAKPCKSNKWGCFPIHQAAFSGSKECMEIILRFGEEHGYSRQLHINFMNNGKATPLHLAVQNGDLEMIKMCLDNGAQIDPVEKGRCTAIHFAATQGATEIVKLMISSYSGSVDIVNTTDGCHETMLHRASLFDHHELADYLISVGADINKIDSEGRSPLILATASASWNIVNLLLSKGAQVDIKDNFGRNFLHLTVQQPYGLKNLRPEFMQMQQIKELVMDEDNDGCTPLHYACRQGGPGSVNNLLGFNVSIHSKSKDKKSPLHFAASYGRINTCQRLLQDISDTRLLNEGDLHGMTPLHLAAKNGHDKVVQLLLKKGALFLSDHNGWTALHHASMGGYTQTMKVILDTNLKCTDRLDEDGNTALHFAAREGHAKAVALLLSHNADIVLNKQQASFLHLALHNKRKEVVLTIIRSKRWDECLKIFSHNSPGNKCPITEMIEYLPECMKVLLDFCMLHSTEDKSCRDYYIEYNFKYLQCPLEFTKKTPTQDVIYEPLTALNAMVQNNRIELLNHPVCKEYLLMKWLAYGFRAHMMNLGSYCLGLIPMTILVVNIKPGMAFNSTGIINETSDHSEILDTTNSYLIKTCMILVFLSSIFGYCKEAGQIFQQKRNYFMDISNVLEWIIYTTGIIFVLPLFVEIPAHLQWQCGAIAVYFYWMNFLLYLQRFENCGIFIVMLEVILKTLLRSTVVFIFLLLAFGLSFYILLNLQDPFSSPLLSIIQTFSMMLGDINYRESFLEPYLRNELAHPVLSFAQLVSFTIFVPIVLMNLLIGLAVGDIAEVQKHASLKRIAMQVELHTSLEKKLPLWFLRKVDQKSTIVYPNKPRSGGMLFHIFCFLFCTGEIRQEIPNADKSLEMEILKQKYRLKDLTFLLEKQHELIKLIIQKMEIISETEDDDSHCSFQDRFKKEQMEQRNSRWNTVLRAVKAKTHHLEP
# [3] = biological target: T1, Transient receptor potential cation channel subfamily A member 1; assay: Activation of mouse TRPA1 channel
# [4] = biological target: T2, Transient receptor potential cation channel subfamily A member 1; assay: Antagonist activity at human TRPA1 channel assessed as inhibition of 4-hydroxy-2-nonenal-induced response; format: functional
# [5] = biological target: T2, Transient receptor potential cation channel subfamily A member 1; assay: Antagonist activity at human TRPA1 channel assessed as inhibition of allyl isothiocyanate-induced intracellular calcium influx; format: functional, cell-based
# [6] = biological target: T3, Transient receptor potential cation channel subfamily V member 3 (Homo sapiens, UniProt Q8NET8); assay: Antagonist activity at human TRPV3 channel; format: functional
# T3 sequence (Q8NET8 whole entry): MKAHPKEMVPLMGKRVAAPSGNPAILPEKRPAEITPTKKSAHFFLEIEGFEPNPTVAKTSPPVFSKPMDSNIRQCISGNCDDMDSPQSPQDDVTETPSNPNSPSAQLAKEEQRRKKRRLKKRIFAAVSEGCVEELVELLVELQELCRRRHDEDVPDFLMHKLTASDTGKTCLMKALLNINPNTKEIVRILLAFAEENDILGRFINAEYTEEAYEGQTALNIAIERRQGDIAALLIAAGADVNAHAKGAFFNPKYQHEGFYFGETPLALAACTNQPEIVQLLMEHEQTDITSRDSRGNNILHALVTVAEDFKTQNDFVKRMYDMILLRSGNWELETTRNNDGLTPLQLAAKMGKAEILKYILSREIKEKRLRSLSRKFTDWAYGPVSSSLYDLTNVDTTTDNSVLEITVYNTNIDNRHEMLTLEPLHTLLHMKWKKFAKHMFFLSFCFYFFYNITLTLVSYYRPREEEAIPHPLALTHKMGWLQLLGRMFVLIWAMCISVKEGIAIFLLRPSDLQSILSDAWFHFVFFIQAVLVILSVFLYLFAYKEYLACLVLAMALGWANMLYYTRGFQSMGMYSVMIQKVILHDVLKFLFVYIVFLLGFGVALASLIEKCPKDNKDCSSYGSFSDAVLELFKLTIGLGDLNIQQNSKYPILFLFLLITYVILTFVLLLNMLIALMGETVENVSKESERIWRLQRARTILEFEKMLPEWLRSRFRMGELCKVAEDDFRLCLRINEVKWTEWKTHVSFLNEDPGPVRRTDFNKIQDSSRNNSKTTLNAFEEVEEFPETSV
# [7] = biological target: T2, Transient receptor potential cation channel subfamily A member 1; assay: Antagonist activity at human TRPA1 channel assessed as inhibition of formalin-induced intracellular calcium influx; format: functional, cell-based
# [8] = biological target: T2, Transient receptor potential cation channel subfamily A member 1; assay: Antagonist activity at human TRPA1 channel expressed in HEK293 cells assessed as inhibition of cinnamaldehyde-induced intracellular calcium influx by FLIPR; format: functional, cell-based
# [9] = biological target: T2, Transient receptor potential cation channel subfamily A member 1; assay: Antagonist activity at human TRPA1 channel expressed in HEK293 cells assessed as inhibition of allyl isothiocyanate-induced intracellular calcium influx by FLIPR; format: functional, cell-based
# [10] = biological target: Transient receptor potential cation channel subfamily V member 1 (Homo sapiens, UniProt Q8NER1); assay: Antagonist activity at human TRPV1 channel; format: functional
# Sequence of Transient receptor potential cation channel subfamily V member 1 (Q8NER1 whole entry): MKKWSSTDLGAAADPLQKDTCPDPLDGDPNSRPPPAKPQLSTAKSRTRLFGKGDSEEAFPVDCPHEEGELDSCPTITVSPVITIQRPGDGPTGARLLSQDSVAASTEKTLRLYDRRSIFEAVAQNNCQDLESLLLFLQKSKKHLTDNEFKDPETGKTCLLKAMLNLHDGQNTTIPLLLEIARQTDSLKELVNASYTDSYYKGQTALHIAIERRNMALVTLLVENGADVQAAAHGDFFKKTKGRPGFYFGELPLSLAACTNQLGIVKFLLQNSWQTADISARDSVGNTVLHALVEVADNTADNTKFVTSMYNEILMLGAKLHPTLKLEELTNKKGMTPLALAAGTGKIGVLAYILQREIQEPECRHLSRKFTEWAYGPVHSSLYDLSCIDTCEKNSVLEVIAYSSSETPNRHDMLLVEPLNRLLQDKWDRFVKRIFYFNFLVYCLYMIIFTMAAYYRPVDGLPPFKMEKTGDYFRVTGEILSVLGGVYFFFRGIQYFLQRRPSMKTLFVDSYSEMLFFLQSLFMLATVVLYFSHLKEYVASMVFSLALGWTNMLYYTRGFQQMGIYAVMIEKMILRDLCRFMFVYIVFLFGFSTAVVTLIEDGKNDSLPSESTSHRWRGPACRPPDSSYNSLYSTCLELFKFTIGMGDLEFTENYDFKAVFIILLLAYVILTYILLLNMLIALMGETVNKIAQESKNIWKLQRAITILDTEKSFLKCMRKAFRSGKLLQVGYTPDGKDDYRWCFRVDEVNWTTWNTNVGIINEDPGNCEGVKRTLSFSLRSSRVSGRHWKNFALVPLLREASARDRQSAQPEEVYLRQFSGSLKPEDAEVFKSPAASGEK
# [11] = biological target: Transient receptor potential cation channel subfamily V member 4 (Homo sapiens, UniProt Q9HBA0); assay: Antagonist activity at human TRPV4 channel; format: functional
# Sequence of Transient receptor potential cation channel subfamily V member 4 (Q9HBA0 whole entry): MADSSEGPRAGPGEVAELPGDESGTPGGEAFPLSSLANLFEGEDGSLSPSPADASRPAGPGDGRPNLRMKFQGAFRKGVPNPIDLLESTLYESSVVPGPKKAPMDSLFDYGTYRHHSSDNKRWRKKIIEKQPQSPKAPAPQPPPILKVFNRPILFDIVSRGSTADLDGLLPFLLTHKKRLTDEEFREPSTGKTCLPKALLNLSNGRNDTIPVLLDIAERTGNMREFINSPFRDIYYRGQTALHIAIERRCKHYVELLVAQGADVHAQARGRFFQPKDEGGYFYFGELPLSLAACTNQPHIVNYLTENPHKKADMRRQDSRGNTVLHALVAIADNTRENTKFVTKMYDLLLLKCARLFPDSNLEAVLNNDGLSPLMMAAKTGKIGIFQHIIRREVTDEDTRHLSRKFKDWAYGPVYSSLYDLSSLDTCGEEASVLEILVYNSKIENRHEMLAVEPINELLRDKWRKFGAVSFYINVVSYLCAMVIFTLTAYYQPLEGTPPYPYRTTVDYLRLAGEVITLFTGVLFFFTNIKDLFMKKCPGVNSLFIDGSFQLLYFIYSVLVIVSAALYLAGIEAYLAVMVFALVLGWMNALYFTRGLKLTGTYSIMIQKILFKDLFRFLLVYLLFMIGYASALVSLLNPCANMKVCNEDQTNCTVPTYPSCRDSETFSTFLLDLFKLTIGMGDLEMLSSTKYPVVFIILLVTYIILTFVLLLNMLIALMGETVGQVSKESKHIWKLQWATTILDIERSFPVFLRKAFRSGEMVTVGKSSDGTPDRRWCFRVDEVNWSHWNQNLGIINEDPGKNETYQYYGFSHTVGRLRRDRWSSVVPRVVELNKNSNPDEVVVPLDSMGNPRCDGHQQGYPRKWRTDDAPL
# [12] = biological target: T2, Transient receptor potential cation channel subfamily A member 1; assay: Antagonist activity at human TRPA1 channel assessed as inhibition of nifedipine-induced intracellular calcium influx; format: functional, cell-based
# [13] = biological target: Transient receptor potential cation channel subfamily M member 8 (Homo sapiens, UniProt Q7Z2W7); assay: Antagonist activity at human TRPM8 channel; format: functional
# Sequence of Transient receptor potential cation channel subfamily M member 8 (Q7Z2W7 whole entry): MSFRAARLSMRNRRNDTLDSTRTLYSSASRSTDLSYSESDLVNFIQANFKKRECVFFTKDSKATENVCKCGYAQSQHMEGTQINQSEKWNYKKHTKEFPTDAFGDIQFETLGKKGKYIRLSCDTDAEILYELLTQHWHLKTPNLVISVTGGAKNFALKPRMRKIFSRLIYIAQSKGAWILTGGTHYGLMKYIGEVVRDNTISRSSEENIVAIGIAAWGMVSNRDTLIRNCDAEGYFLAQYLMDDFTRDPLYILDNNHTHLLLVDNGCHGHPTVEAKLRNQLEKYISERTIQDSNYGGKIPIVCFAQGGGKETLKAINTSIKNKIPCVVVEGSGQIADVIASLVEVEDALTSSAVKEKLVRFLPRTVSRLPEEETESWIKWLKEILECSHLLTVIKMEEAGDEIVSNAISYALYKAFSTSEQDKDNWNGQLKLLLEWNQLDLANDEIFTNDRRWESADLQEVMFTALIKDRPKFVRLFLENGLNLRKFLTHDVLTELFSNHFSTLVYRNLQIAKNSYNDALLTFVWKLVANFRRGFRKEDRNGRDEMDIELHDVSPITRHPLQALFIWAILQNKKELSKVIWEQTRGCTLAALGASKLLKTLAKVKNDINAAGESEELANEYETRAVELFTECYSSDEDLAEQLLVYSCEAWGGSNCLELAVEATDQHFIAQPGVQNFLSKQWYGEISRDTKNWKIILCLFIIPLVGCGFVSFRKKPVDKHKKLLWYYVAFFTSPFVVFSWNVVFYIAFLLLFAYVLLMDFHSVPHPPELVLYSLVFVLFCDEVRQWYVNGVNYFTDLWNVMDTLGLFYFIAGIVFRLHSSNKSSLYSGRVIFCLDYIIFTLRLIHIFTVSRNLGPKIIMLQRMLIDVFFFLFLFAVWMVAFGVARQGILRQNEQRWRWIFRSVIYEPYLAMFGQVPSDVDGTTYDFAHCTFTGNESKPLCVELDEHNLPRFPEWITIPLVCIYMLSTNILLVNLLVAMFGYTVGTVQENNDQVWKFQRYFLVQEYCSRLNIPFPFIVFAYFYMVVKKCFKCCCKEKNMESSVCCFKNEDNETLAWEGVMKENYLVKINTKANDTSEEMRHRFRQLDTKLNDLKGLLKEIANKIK
# T1 sequence (Q8BLA8 whole entry): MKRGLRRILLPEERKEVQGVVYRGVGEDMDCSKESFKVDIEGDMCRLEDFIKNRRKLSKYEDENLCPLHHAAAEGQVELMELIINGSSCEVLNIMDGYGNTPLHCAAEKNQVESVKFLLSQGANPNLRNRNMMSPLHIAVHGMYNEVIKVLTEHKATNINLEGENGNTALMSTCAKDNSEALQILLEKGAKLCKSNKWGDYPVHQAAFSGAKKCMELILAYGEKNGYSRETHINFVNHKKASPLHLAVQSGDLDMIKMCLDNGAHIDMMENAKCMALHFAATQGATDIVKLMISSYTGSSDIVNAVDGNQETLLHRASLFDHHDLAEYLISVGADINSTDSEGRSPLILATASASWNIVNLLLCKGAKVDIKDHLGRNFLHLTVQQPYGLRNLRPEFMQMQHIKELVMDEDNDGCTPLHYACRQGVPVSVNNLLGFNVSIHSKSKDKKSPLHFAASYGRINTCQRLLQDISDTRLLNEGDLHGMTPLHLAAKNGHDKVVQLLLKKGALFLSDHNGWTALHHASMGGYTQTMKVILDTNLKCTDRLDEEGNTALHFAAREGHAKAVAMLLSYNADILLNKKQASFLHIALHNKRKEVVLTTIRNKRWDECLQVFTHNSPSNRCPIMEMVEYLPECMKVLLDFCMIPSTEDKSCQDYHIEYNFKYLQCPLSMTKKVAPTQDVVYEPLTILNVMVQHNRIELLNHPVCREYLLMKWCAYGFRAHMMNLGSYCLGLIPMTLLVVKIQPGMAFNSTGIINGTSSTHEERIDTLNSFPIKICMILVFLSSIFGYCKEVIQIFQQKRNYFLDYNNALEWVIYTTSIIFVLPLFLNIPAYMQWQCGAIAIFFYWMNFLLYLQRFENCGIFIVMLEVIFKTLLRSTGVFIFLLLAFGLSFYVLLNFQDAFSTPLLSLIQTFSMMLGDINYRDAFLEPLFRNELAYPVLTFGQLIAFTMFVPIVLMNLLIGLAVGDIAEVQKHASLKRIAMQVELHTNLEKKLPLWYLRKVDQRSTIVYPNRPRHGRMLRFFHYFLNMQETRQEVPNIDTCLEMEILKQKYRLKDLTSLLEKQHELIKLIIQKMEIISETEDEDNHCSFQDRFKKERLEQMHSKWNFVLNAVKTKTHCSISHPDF
Compound,IC50 [1],IC50 [2],EC50 [3],IC50 [4],IC50 [5],IC50 [6],IC50 [7],IC50 [8],IC50 [9],IC50 [10],IC50 [11],IC50 [12],IC50 [13]
CC(=C\c1ccc(Cl)cc1)/C(C)=N/O [AP18 5],4.5 µM,3.1 µM,–,–,–,–,–,–,–,–,–,–,–
CCC(C)c1ccc(NC(=O)Cn2cnc3c2c(=O)n(C)c(=O)n3C)cc1 (stereo not given),–,–,2500 µM,18.7 µM,14.3 µM,–,–,–,–,–,–,–,–
CC(C)c1ccc(NC(=O)Cn2cnc3c2c(=O)n(C)c(=O)n3C)cc1,–,–,1000 µM,–,6.2 µM,> 10 µM,5.3 µM,4.9 µM,7.5 µM,> 20 µM,> 10 µM,1.8 µM,> 30 µM
